Data set [1] in a line: Thioctamer zeta potential and particle size evaluation (Zetasizer Nano ZSP). Format: physicochemical. The method, then:
Thioctamer was prepared by conjugation of GA and TA in a 1:1 molar ratio. TA was solvated in deionized water (with added of triethanolamine in a 1:1 molar ratio with the amount of TA). GA was dissolved separately in deionized water. The two aqueous solutions were mixed and then vortexed for 60 sec. The prepared thioctamer was assessed for zeta potential and particle size utilizing a Zetasizer Nano ZSP (Malvern Instruments Ltd., Malvern, UK).

Another data set has as its system wound on rat skin. The following applies: seventh day after surgery; topical; negative control 43.0±17.4%; cited from earlier work.
The subject of the next data set is wounds in diabetic rats. The following applies: cited from earlier work.
The subject of a further data set is IL-6. In words: Immunohistochemical assessment of IL-6 expression in wounded skin. The data set is classed as in vivo, male Wistar rats. The following applies: wounded skin of diabetic rats; negative control 0.42±0.044; mean±SD, n=6.
For data set [2], the system named is excision wound on dorsal surface of diabetic rats. In words: Wound closure in wounded diabetic rats, topical hydrogel treatment. Particulars: day 7, topical daily, 1.5% w/v HPMC hydrogel (TA 4.1, GA 12.5, thioctamer 16.6 mg/g gel), mean±SD, n=6. The data set is classed as in vivo, male Wistar rats.
Protocol: Rats were anesthetized by xylazine and ketamine (10 mg/kg and 100 mg/kg, respectively IP injection). The dorsal surface was shaved, the skin was sterilized by povidone-iodine solution, and an excision circle (1 cm diameter) was made on dorsal surface. After the excision, the wounds were cleaned and dried using sterile saline solution and sterile pads, respectively. Subcutaneous injection of 2% solution of lidocaine hydrochloride having 1:80,000 epinephrine (4.4 mg/kg) was performed near the wound area to reduce pain. […] At days 0, 4, 7, and 10, wounds were photographed and assessed. […]
The subject of the next data set is TNF-α. In words: Immunohistochemical assessment of TNF-α expression in wounded skin. The data set is classed as in vivo, male Wistar rats. The following applies: wounded skin of diabetic rats; negative control 0.47±0.048; mean±SD, n=6.
For data set [3], the system named is wound tissues of diabetic rats. In words: Histological investigation of wound tissue (H&E, Masson's trichrome). Format: in vivo, male Wistar rats. The following applies: for Ang = Angio-genesis / CD = Collagen deposition / FP = Fibroblast proliferation / GT = Granulation tissue / IC = Inflammatory cell infiltration / RE = Re-epithelization: day 10 wound healing, topical application, diabetic rats; for healing rate by histology (in words): wound tissues collected on day 10, H&E or Masson's trichrome. The method, then: Thirty 210-240 g male Wistar rats were provided by KAU's animal facility and were maintained on a 12-hr dark-light cycle at a temperature of 22 ±2° C. […] Induction of diabetes in rats was carried out as formerly described, i.e. prior to the study, rats were intra-peritoneally injected with streptozotocin (50 mg/kg) for two weeks. Go Accu-Chek was utilized for assessing the level of fasting blood glucose (Roche, Mannheim, Germany) Moderate-diabetic rats with level of fasting blood glucose (200-300 mg/100 mL) were chosen for the experiment.
Rats were anesthetized by xylazine and ketamine (10 mg/kg and 100 mg/kg, respectively IP injection). The dorsal surface was shaved, the skin was sterilized by povidone-iodine solution, and an excision circle (1 cm diameter) was made on dorsal surface. After the excision, the wounds were cleaned and dried using sterile saline solution and sterile pads, respectively. Subcutaneous injection of 2% solution of lidocaine hydrochloride having 1:80,000 epinephrine (4.4 mg/kg) was performed near the wound area to reduce pain. […] All treatments were topically applied daily for a total of 10 days. The wounds were wrapped with sterile gauze dressings and changed daily. At days 0, 4, 7, and 10, wounds were photographed and assessed. Animals were sacrificed by beheading at the end of day 10 and the skin of wound area was cut out. From each animal, a part of the obtained skin was retained in 10% neutral formalin, while the other part was preserved at -80° C. for further analyses.
Wound tissues were preserved for 24 h in 10% neutral formalin, then dehydrated using serial concentrations of ethanol, passed through xylene as a clearing agent, and inserted in paraffin. Tissues' paraffin blocks were cut into 5 μm thickness that were rehydrated after dewaxing. Some sections were stained using E&H (eosin and hematoxylin), whereas the remaining were stained with MT (Masson's trichrome). Histological investigation was carried out by a pathologist without prior knowledge of the groups'treatment. On the basis of the abundance/degree of inflammatory cell infiltration, proliferation of fibroblasts, deposition of collagen, angiogenesis, tissue granulation, and re-epithelization, scores were assigned in a range from - to +++.

Protocol for IL-6: (§1) Rats were anesthetized by xylazine and ketamine (10 mg/kg and 100 mg/kg, respectively IP injection). The dorsal surface was shaved, the skin was sterilized by povidone-iodine solution, and an excision circle (1 cm diameter) was made on dorsal surface. After the excision, the wounds were cleaned and dried using sterile saline solution and sterile pads, respectively. Subcutaneous injection of 2% solution of lidocaine hydrochloride having 1:80,000 epinephrine (4.4 mg/kg) was performed near the wound area to reduce pain. […] All treatments were topically applied daily for a total of 10 days. The wounds were wrapped with sterile gauze dressings and changed daily. At days 0, 4, 7, and 10, wounds were photographed and assessed. Animals were sacrificed by beheading at the end of day 10 and the skin of wound area was cut out. […]
Protocol for TNF-α: as §1

`O=C(O)CCCCC1CCSS1` (centres unmarked) [TA, thioctic acid] yielded a zeta potential in data set [1] of -26.6±5.39 mV. Moreover, in the data set on wound on rat skin, the healing rate is reported as 60.7±8.4%. For the same compound, the “time to complete wound closure” value in the data set with wounds in diabetic rats is on record as 8 days. Besides, the “IL-6 expression (immunohistochemistry, image analysis)” value in the data set with IL-6 is given as 0.324±0.043. In data set [2], the “% wound contraction (healing)” value came to 56.5±5.8%. In addition, the “TNF-α expression (immunohistochemistry, image analysis)” value in the data set on TNF-α worked out at 0.374±0.039. Further, in data set [3], the “Ang = Angio-genesis” value is listed as “+”, the “CD = Collagen deposition” value is listed as “++”, the “FP = Fibroblast proliferation” value is listed as “++” and the “GT = Granulation tissue” value is reported as “++”. For the same compound, in data set [3], the “IC = Inflammatory cell infiltration” value was “+++”, the “RE = Re-epithelization” value is “++” and the “healing rate by histology (in words)” value is given as “moderate healing rate”.

For the compound “L-alanine compound with L-tyrosine compound with L-lysine compound with L-glutamic acid acetic acid [GA]”, the “IL-6 expression (immunohistochemistry, image analysis)” value in the data set with IL-6 is on record as 0.318±0.033. For the same compound, the “% wound contraction (healing)” value in data set [2] was found to be 62.6±7.1%. In addition, the “TNF-α expression (immunohistochemistry, image analysis)” value in the data set on TNF-α came to 0.34±0.05. In addition, in data set [3], the “Ang = Angio-genesis” value was “+”, the “CD = Collagen deposition” value was “++”, the “FP = Fibroblast proliferation” value is reported as “++” and the “GT = Granulation tissue” value is recorded as “++”. Besides, in data set [3], the “IC = Inflammatory cell infiltration” value is “+++”, the “RE = Re-epithelization” value is “++” and the “healing rate by histology (in words)” value was “moderate healing rate”.

The values above are taken from patent US11497765B1, “Thioctamer expedites wound healing” (King Abdulaziz University, priority 2022, dated 2022).
